ChEMBL document CHEMBL1122449, “Anticoccidial derivatives of 6-azauracil. 5. Potentiation by benzophenone side chains” (J Med Chem, 1983)

What was measured:
Eimeria tenella = assay: Anticoccidial activity which controlled infection by Eimeria tenella in Leghorn cockerels; assay type: functional; settings: read-out: MEC
Eimeria necatrix = assay: Anticoccidial activity which controlled infection by Eimeria necatrix in Leghorn cockerels; MEC means minimum effective concentration in parts per million.; assay type: functional; settings: read-out: MEC
[1] = Apparent pKa value was measured in 2:1 DMF/H2O.; assay type: physicochemical
[2] = Plasma half-life of the compound.; assay type: ADME
Eimeria acervulina = assay: Anticoccidial activity which controlled infection by Eimeria acervulina in Leghorn cockerels; settings: read-out: MEC
[3] = Apparent pKa value was measured in 1:1 DMF/H2O.; assay type: physicochemical

Row | Compound | minimal effective concentration (Eimeria tenella) [µg/mL] | also measured
1 | Cc1cc(-n2ncc(=O)[nH]c2=O)cc(C)c1C(O)c1ccc(Cl)cc1 (stereo not given) | 30 | –
2 | CS(=O)(=O)c1ccc(C(=O)c2ccc(-n3ncc(=O)[nH]c3=O)cc2Cl)cc1 | – | minimal effective concentration (Eimeria necatrix): > 15 µg/mL
3 | Cc1cc(Cl)ccc1C(=O)c1ccc(-n2ncc(=O)[nH]c2=O)cc1C | 15 | –
4 | Cc1cc(-n2ncc(=O)[nH]c2=O)ccc1C(=O)c1ccc(Cl)cc1 | 8 | pH1/2 [1]: 7.6; half-life [2]: 13 h
5 | O=C(c1ccc(Cl)cc1Cl)c1ccc(-n2ncc(=O)[nH]c2=O)cc1Cl | 4 | –
6 | CC(=O)c1ccc(-n2ncc(=O)[nH]c2=O)cc1 | > 250 | pH1/2 [1]: 6.53
7 | O=C(c1ccccc1)c1ccc(-n2ncc(=O)[nH]c2=O)cc1 | 60 | pH1/2 [1]: 7.79
8 | COc1ccc(C(=O)c2ccc(-n3ncc(=O)[nH]c3=O)cc2)cc1 | 125 | –
9 | Cc1cc(-n2ncc(=O)[nH]c2=O)ccc1C(O)c1ccc(Cl)cc1 (stereo not given) | 15 | –
10 | O=C(c1ccc(-n2ncc(=O)[nH]c2=O)cc1)c1cccs1 | > 250 | –
11 | CSc1ccc(C(=O)c2ccc(-n3ncc(=O)[nH]c3=O)cc2Cl)cc1 | – | minimal effective concentration (Eimeria acervulina): > 30 µg/mL
12 | O=C(c1ccc(Cl)cc1)c1ccc(-n2ncc(=O)[nH]c2=O)cc1Cl | 2 | pH1/2 [1]: 7.16; half-life [2]: 20 h
13 | Cc1cc(-n2ncc(=O)[nH]c2=O)ccc1Cc1ccccc1 | 30 | –
14 | O=c1cnn(-c2ccc(C(O)c3ccc(Cl)cc3)c(Cl)c2)c(=O)[nH]1 (stereo not given) | 2 | –
15 | Cc1cc(-n2ncc(=O)[nH]c2=O)cc(Cl)c1C(=O)c1ccc(Cl)cc1 | 8 | half-life [2]: 21 h
16 | O=C(c1ccccc1)c1cccc(-n2ncc(=O)[nH]c2=O)c1 | > 250 | –

Row | Compound | minimal effective concentration (Eimeria tenella) [µg/mL] | also measured
17 | Cc1cc(-n2ncc(=O)[nH]c2=O)cc(C)c1C(=O)c1ccc(Cl)cc1 | 15 | –
18 | CC(=O)c1ccc(-n2ncc(=O)[nH]c2=O)cc1Cl | 125 | –
19 | O=C(c1ccccc1)c1ccc(-n2ncc(=O)[nH]c2=O)cc1Cl | 15 | pH1/2 [1]: 7.04
20 | Cc1cc(C)c(C(=O)c2ccc(-n3ncc(=O)[nH]c3=O)cc2)c(C)c1 | > 250 | pH1/2 [1]: 7.16
21 | O=C(c1ccccc1)c1cc(-n2ncc(=O)[nH]c2=O)ccc1Cl | > 250 | –
22 | Cc1cc(-n2ncc(=O)[nH]c2=O)ccc1C(O)c1ccccc1 (stereo not given) | 30 | pH1/2 [3]: 7.37
23 | O=C(c1ccc(Cl)cc1)c1ccc(-n2ncc(=O)[nH]c2=O)cc1 | 30 | –
24 | O=c1cnn(-c2ccc(-c3ccc4oc5ccc(Cl)cc5c(=O)c4c3)cc2)c(=O)[nH]1 | > 250 | –
25 | CCCC(=O)c1ccc(-n2ncc(=O)[nH]c2=O)cc1 | > 60 | –
26 | Cc1cc(-n2ncc(=O)[nH]c2=O)ccc1C(=O)c1ccc(C#N)cc1 | 125 | pH1/2 [1]: 7.08
27 | Cc1cc(-n2ncc(=O)[nH]c2=O)ccc1C(=O)c1ccccc1Cl | 60 | pH1/2 [1]: 7.08
28 | Cc1cc(-n2ncc(=O)[nH]c2=O)ccc1C(=O)c1ccc(Cl)cc1Cl | 4 | half-life [2]: 45 h
29 | Cc1cc(Br)ccc1C(=O)c1ccc(-n2ncc(=O)[nH]c2=O)cc1Cl | 8 | –
30 | Cc1ccc(C(=O)c2ccc(-n3ncc(=O)[nH]c3=O)cc2)cc1 | > 250 | –
31 | Cc1cc(-n2ncc(=O)[nH]c2=O)ccc1C(=O)c1ccccc1 | 8 | pH1/2 [3]: 7.02
